{
  "source": "patent US11850266B2",
  "about": "“Cardiomyocytes and compositions and methods for producing the same” (President and Fellows of Harvard College, priority 2019, dated 2023)",
  "key": {"[1]": {"test_system": "TNNT2+ iPSC-derived cardiomyocytes", "assay": "Cell cycle analysis by flow cytometry (Hoechst 33342 / pyronin Y) of TNNT2+ cardiomyocytes", "format": "cell-based, human", "method": "To prepare for differentiation, iPSCs were plated at a density between 20,000 to 80,000 cells (depending on the cell line) per well of a 12-well plate at four days prior to onset of differentiation. Cells were differentiated according to the protocol previously described by Lian et al. with some modifications (FIG. 1A) (1). Basal media was changed from StemFlex to RPMI/B27 on day 0 of differentiation. The GSK3 inhibitor, CHIR99021 (6 μM), was added for 48 hours from day 0 to day 2 of differentiation when cells were approximately 70-80% confluent. The Wnt antagonist IWP4 (5 μM) was added from days 2 to 4 of differentiation. Insulin (10 μg/ml) was added to the media starting on day 7 of differentiation, and media was changed every 2-3 days. In general, higher purity (TNNT2+) cardiomyocytes were observed when beating initiated prior to day 10 of differentiation, therefore only batches with onset of beating between days 7-10 of differentiation were included in this study. Beating cardiomyocytes were treated with Torin1 (200 nM, unless otherwise noted) or vehicle (0.02% dimethylsulfoxide (DMSO)) beginning at ˜2 days after onset of beating for 7 days (media changed with fresh Torin1 or DMSO every 2-3 days), unless otherwise noted. After Torin1 treatment, media was switched back to RPMI/B27/insulin and maintained with media change every 2-3 days until endpoint assay. In a few assays, fatty acids were added in the form of chemically defined lipids (Gibco) diluted 1:1000 simultaneous with Torin1 treatment. In some other assays, fetal bovine serum (10% FBS) was added to cells after completion of Torin treatment for 2-4 days.\nCells were dissociated and 5×10^5 to 1×10^6 cells were used per condition. For cell cycle analysis, 5×10^5 cells per condition were fixed in 70% cold ethanol for at least 2 hours to overnight at −20 degrees C. Cells were stained first with AlexaFluor 647-TNNT2 in Permeabilization Buffer (Thermo) then with Hoechst 33342 (2 μg/ml) and pyronin Y (4 μg/ml) for 20 minutes to distinguish between cells in G0, G1, and S-G2-M phases. For other stains, cells were fixed in eBioscience Intracellular Fixation buffer for 30 minutes followed washing twice in eBioscience Permeabilization Buffer and stained with the appropriate primary antibody (Table 2) in eBioscience FACS Staining buffer for 30-60 minutes. If a secondary antibody was used, cells were incubated with the appropriate secondary antibody (Table 2) for 30-60 minutes. The geometric mean fluorescence intensity (MFI) was quantified for TNNT2 and Kir2.1 antibodies. Data were acquired via a BD LSRII instrument and analyzed using FlowJo software."}, "[2]": {"test_system": "iPSC-derived cardiomyocytes", "assay": "Immunocytochemistry, sarcomere length", "format": "cell-based, human", "conditions": "versus control, BJRiPS-CMs, FIG. 2H", "method": "Cells were dissociated from 12 well plates after differentiation with 0.1% trypsin-EDTA and replated into Geltrex-coated 4-chamber microscope slides. Cells were fixed in 4% paraformaldehyde then permeabilized with 0.5% Triton X-100. After blocking with 5% BSA, cells were incubated with primary antibodies (Table 2) for 30 minutes at room temperature followed by incubation with the secondary antibody (Table 2) for 45 minutes at room temperature in the dark. After washing with phosphate buffered saline (PBS), Vectashield mounting agent with DAPI (for slides) or DAPI (for plates) was applied and cells were visualized with a confocal microscope (Zeiss LSM 700). Muscular thin films (MTFs) were stained in a similar manner except DAPI (1 μg/ml) was applied for 5 minutes before rinsing and transferring MTFs into PBS until imaging."}},
  "data": [
    {"smiles": "CCC(=O)N1CCN(c2ccc(-n3c(=O)ccc4cnc5ccc(-c6cnc7ccccc7c6)cc5c43)cc2C(F)(F)F)CC1", "note": "[Torin1]", "values": [
      {"measurement": "percentage of Torin1-treated cells in G0 after 10% FBS", "setting": "[1]; 10% FBS 48 hours starting two days after completion of Torin1, FIG. 1I", "value": "significant decrease"},
      {"measurement": "quiescent (G0) cells", "setting": "[1]; Torin1 200 nM 1 week, vehicle control 24%, FIG. 1G", "value": 48, "unit": "%"},
      {"measurement": "G1 cells", "setting": "[1]; Torin1 200 nM 1 week, vehicle control 47%, FIG. 1G", "value": 27, "unit": "%"},
      {"measurement": "percentage of quiescent (G0) TNNT2+ cardiomyocytes versus control", "setting": "[1]; nutlin-3a 10 μM 24 hours, Torin1 200 nM 7 days, or both, BJRiPS-CMs, FIG. 6B", "value": "increased the percentage of quiescent (G0) TNNT2+ cardiomyocytes"},
      {"measurement": "percentage of TNNT2+ cardiomyocytes in G1 phase versus control", "setting": "[1]; nutlin-3a 10 μM 24 hours, Torin1 200 nM 7 days, or both, FIG. 6B", "value": "decreased the percentage of TNNT2+ cardiomyocytes in G1 phase"},
      {"measurement": "sarcomere length", "setting": "[2]", "value": "no differences"}
    ]}
  ]
}
